Counter-ions that a name gives are not always drawn.
system: SJSA, an osteocarcinoma cell line; test: antiproliferative activity assay (tetrazolium dye, MTT) in SJSA cells; settings: cell-based MTT assay, inhibition of cell proliferation, read-out: TT IC50
Method: The pharmacological properties of the compounds of this invention may be confirmed by a number of pharmacological assays. The exemplified antiproliferative activity assay which follows has been carried out with the compounds according to the invention.
Cell proliferation was evaluated by the tetrazolium dye assay according to the procedure of Denizot and Lang (Denizot, F. and Lang, R. (1986) Rapid colorimetric assay for cell growth and survival. Modification to the terrazolium dye procedure giving improved sensitivity and reliability. J. Immunol. Methods 89, 271-277). The cell line used was SJSA, an osteocarcinoma cell line obtained from the American Type Cell Culture Collection (ATCC; Rockville, Md.). The cells were grown in PRMI with 10% FBS (Fetal Bovine Serum, Invitrogen).
Cells were plated at the appropriate seeding density to give logarithmic growth over the course of the assay in a 96-well tissue culture plate. Plates were incubated overnight at 37° C. in a humidified incubator with 5% CO2. The next day, test compounds were serially diluted 1:3 in the appropriate medium containing 3% DMSO. One-tenth final volume of each dilution was added […] to the plates containing cells. The same volume of 3% DMSO in medium was added to a row of control wells. Thus, the final concentration of DMSO in all wells was 0.3%. The plates were returned to the incubator, and at set time points (determined by their growth curves) plates were analyzed as follows: 3-(4,5-dimethylthiazole-2-yl)-2,5-diphenyl-2H-tetrazolium bromide (thiazolyl blue; MTT; Sigma) was added to each well to yield a final concentration of 1 mg/ml. Plates were returned to the incubator for 2.5 hours. The MTT-containing medium was removed and the resulting formazan metabolite was solubilized in 100% ethanol with shaking for 15 minutes at room temperature. Absorbances were read in a microtiter plate reader at a wavelength of 570 nm with a 650 nm reference. Percent inhibition (% INH) was calculated by subtracting the blank from all wells, then subtracting the ratio of the average absorbance of each triplicate (SAVE) by the average of the controls (CAVE) from 1.00. The final product was then multiplied by 100 (% INH=(1.00−SAVE/CAVE)×100). The concentration at which 50% inhibition (IC50) of cell proliferation is obtained was determined from the linear regression of a plot of the logarithm of the concentration versus percent inhibition.

IC50	Structure (SMILES)
1310 nM	CCN1[C@@H](CC(C)(C)C)[C@](C#N)(c2ccc(Cl)cc2F)[C@@H](c2cccc(Cl)c2F)[C@@H]1C(=O)Nc1ccc(C(=O)O)cc1 (racemic) [Example 33, 4-{[(2R,3S,4R,5S)-3-(3-chloro-2-fluoro-phenyl)-4-(4-chloro-2-fluoro-phenyl)-4-cyano-5-(2,2-dimethyl-propyl)-1-ethyl-pyrrolidine-2-carbonyl]-amino}benzoic acid]
300 nM	CC(C)(C)C[C@@H]1N(CC2CC2)[C@@H](C(=O)Nc2ccc(C(=O)O)cc2)[C@H](c2cccc(Cl)c2F)[C@@]1(C#N)c1ccc(Cl)cc1F (racemic) [Example 34, rac-4-{[(2R,3S,4R,5S)-3-(3-chloro-2-fluoro-phenyl)-4-(4-chloro-2-fluoro-phenyl)-4-cyano-1-cyclopropylmethyl-5-(2,2-dimethyl-propyl)-pyrrolidine-2-carbonyl]-amino}-benzoic acid]
110 nM	CC(C)(C)C[C@@H]1N(CCC2CCCCC2)[C@@H](C(=O)Nc2ccc(C(=O)O)cc2)[C@H](c2cccc(Cl)c2F)[C@@]1(C#N)c1ccc(Cl)cc1F (racemic) [Example 37, rac-4-{[(2R,3S,4R,5S)-3-(3-chloro-2-fluoro-phenyl)-4-(4-chloro-2-fluoro-phenyl)-4-cyano-1-(2-cyclohexyl-ethyl)-5-(2,2-dimethyl-propyl)-pyrrolidine-2-carbonyl]-amino}-benzoic acid]
40 nM	COc1cc(C(=O)O)ccc1NC(=O)[C@H]1[C@H](c2cccc(Cl)c2F)[C@@](C#N)(c2ccc(Cl)cc2F)[C@H](CC(C)(C)C)N1C (racemic) [Example 39, rac-4-{[(2R,3S,4R,5S)-3-(3-chloro-2-fluoro-phenyl)-4-(4-chloro-2-fluoro-phenyl)-4-cyano-5-(2,2-dimethyl-propyl)-1-methyl-pyrrolidine-2-carbonyl]-amino}-3-methoxy-benzoic acid]
130 nM	COc1cc(C(=O)O)ccc1NC(=O)[C@H]1[C@H](c2cccc(Cl)c2F)[C@@](C#N)(c2ccc(Cl)cc2F)[C@H](CC(C)(C)C)N1CC1CC1 (racemic) [Example 40, rac-4-{[(2R,3S,4R,5S)-3-(3-chloro-2-fluoro-phenyl)-4-(4-chloro-2-fluoro-phenyl)-4-cyano-1-cyclopropylmethyl-5-(2,2-dimethyl-propyl)-pyrrolidine-2-carbonyl]-amino}-3-methoxy-benzoic acid]
1230 nM	CCN1[C@@H](CC(C)(C)C)[C@](C#N)(c2ccc(Cl)cc2F)[C@@H](c2cccc(Cl)c2F)[C@@H]1C(=O)Nc1ccc(C(=O)O)c(OC)c1 (racemic) [Example 41, 4-{[(2R,3S,4R,5S)-3-(3-chloro-2-fluoro-phenyl)-4-(4-chloro-2-fluoro-phenyl)-4-cyano-5-(2,2-dimethyl-propyl)-1-ethyl-pyrrolidine-2-carbonyl]-amino}-2-methoxy-benzoic acid]
1360 nM	COc1cc(NC(=O)[C@H]2[C@H](c3cccc(Cl)c3F)[C@@](C#N)(c3ccc(Cl)cc3F)[C@H](CC(C)(C)C)N2C)ccc1C(=O)O (racemic) [Example 42, 4-{[(2R,3S,4R,5S)-3-(3-chloro-2-fluoro-phenyl)-4-(4-chloro-2-fluoro-phenyl)-4-cyano-5-(2,2-dimethyl-propyl)-1-methyl-pyrrolidine-2-carbonyl]-amino}-2-methoxy-benzoic acid]
1140 nM	CCCCN1[C@@H](CC(C)(C)C)[C@](C#N)(c2ccc(Cl)cc2F)[C@@H](c2cccc(Cl)c2F)[C@@H]1C(=O)Nc1ccc(C(=O)O)c(OC)c1 (racemic) [Example 43, 4-{[(2R,3S,4R,5S)-1-butyl-3-(3-chloro-2-fluoro-phenyl)-4-(4-chloro-2-fluoro-phenyl)-4-cyano-5-(2,2-dimethyl-propyl)-pyrrolidine-2-carbonyl]-amino}-2-methoxy-benzoic acid]
220 nM	CCN1[C@@H](CC(C)(C)C)[C@](C#N)(c2ccc(Cl)cc2F)[C@@H](c2cccc(Cl)c2F)[C@@H]1C(=O)Nc1ccc(C(=O)O)cc1OC (racemic) [Example 44, rac-4-{[(2R,3S,4R,5S)-3-(3-chloro-2-fluoro-phenyl)-4-(4-chloro-2-fluoro-phenyl)-4-cyano-5-(2,2-dimethyl-propyl)-1-ethyl-pyrrolidine-2-carbonyl]-amino}-3-methoxy-benzoic acid]
420 nM	COc1cc(NC(=O)[C@H]2[C@H](c3cccc(Cl)c3F)[C@@](C#N)(c3ccc(Cl)cc3F)[C@H](CC(C)(C)C)N2CCC(C)C)ccc1C(=O)O (racemic) [Example 45, 4-{[(2R,3S,4R,5S)-3-(3-chloro-2-fluoro-phenyl)-4-(4-chloro-2-fluoro-phenyl)-4-cyano-5-(2,2-dimethyl-propyl)-1-(3-methyl-butyl)-pyrrolidine-2-carbonyl]-amino}-2-methoxy-benzoic acid]
620 nM	C=CCCCN1[C@@H](CC(C)(C)C)[C@](C#N)(c2ccc(Cl)cc2F)[C@@H](c2cccc(Cl)c2F)[C@@H]1C(=O)Nc1ccc(C(=O)O)c(OC)c1 (racemic) [Example 47, 4-{[(2R,3S,4R,5S)-3-(3-chloro-2-fluoro-phenyl)-4-(4-chloro-2-fluoro-phenyl)-4-cyano-5-(2,2-dimethyl-propyl)-1-pent-4-enyl-pyrrolidine-2-carbonyl]-amino}-2-methoxy-benzoic acid]
430 nM	COc1cc(NC(=O)[C@H]2[C@H](c3cccc(Cl)c3F)[C@@](C#N)(c3ccc(Cl)cc3F)[C@H](CC(C)(C)C)N2CCC2CCCCC2)ccc1C(=O)O (racemic) [Example 48, 4-{[(2R,3S,4R,5S)-3-(3-chloro-2-fluoro-phenyl)-4-(4-chloro-2-fluoro-phenyl)-4-cyano-1-(2-cyclohexyl-ethyl)-5-(2,2-dimethyl-propyl)-pyrrolidine-2-carbonyl]-amino}-2-methoxy-benzoic acid trifluoroacetate salt]
1490 nM	CCCN1[C@@H](CC(C)(C)C)[C@](C#N)(c2ccc(Cl)cc2F)[C@@H](c2cccc(Cl)c2F)[C@@H]1C(=O)Nc1ccc(C(=O)O)c(OC)c1 (racemic) [Example 49, 4-{[(2R,3S,4R,5S)-3-(3-chloro-2-fluoro-phenyl)-4-(4-chloro-2-fluoro-phenyl)-4-cyano-5-(2,2-dimethyl-propyl)-1-propyl-pyrrolidine-2-carbonyl]-amino}-2-methoxy-benzoic acid]
370 nM	COc1cc(C(N)=O)ccc1NC(=O)[C@H]1[C@H](c2cccc(Cl)c2F)[C@@](C#N)(c2ccc(Cl)cc2F)[C@H](CC(C)(C)C)N1C (racemic) [Example 50, rac-(2R,3S,4R,5S)-3-(3-chloro-2-fluoro-phenyl)-4-(4-chloro-2-fluoro-phenyl)-4-cyano-5-(2,2-dimethyl-propyl)-1-methyl-pyrrolidine-2-carboxylic acid (4-carbamoyl-2-methoxy-phenyl)-amide]
460 nM	CNC(=O)c1ccc(NC(=O)[C@H]2[C@H](c3cccc(Cl)c3F)[C@@](C#N)(c3ccc(Cl)cc3F)[C@H](CC(C)(C)C)N2C)c(OC)c1 (racemic) [Example 51, rac-(2R,3S,4R,5S)-3-(3-chloro-2-fluoro-phenyl)-4-(4-chloro-2-fluoro-phenyl)-4-cyano-5-(2,2-dimethyl-propyl)-1-methyl-pyrrolidine-2-carboxylic acid (2-methoxy-4-methylcarbamoyl-phenyl)-amide]

Reference: patent US20120010235A1, “N-SUBSTITUTED PYRROLIDINES” (priority 2010, published 2012)
